# Test results published in article PMC8197120, “Synthesis and Characterization of Some New Quinoxalin-2(1H)one and 2-Methyl-3H-quinazolin-4-one Derivatives Targeting the Onset and Progression of CRC with SAR, Molecular Docking, and ADMET Analyses” (Molecules, 2021).
# Where two headings read alike, the source gives them in different places.
# Legend:
# [1] = system: HCT-116 cells; test: In vitro cytotoxicity assay (LDH release); format: cell-based, human
# Description: (§1) The best-in-class compounds, including (4c), (4d), (6a), (6b), (6d), (6e), and (6g), which were recognized as antimicrobial and enzymatic inhibitors, were further examined for their cytotoxic effects on LoVo and HCT-116 cells of human colon cancer. This was carried out by determining the residual percentages of viable cells after being treated with the compounds at different concentrations (50, 100, 200, and 400 µg/mL), using triton X-100 (at concentration of 0.1%) in the assay medium and the assay as the positive and negative controls, respectively.
# (§2) Samples were diluted in Dulbecco’s modified Eagles medium, consisting of 10% fetal bovine serum, added to cells grown and cultured for 24 h in a 5% CO2-humidified incubator at 37 °C. Then, the activity of lactate dehydrogenase released from damaged cells was determined in the collected supernatant aliquots using an ELISA end-point assay (Benchmark Plus, Bio-Rad, CA, USA). The 0.1% Triton X-100 in the assay medium and the assay medium only were used as positive and negative controls, respectively. Cell viability, expressed as a relative percentage of the OD values (at 550 nm) for compound-treated cells (final concentration of 200 µg) and the control, is shown as mean ± SD (n = 2).
# [2] = system: LoVo cells; test: In vitro cytotoxicity assay (LDH release); format: cell-based, human
# Description: as §1, §2
# [3] = system: Bacteroides fragilis (ATCC 25285); test: Antibacterial activity, CFU viability; format: cell-based; conditions: ATCC25285, mean of two determinations, read-out: Mean IC50 ± SD
# Description: (§3) Pure standard microbial isolates collected from King Khaled University Hospital were tested in this study, including Enterococcus faecalis (ATCC 29122) as Gram positive bacteria and Escherichia coli (ATCC 25922) and Bacteroides fragilis (ATCC 25285) as Gram negative bacteria. Fresh cultures of each microorganism were grown on nutrient agar plates (Oxoid, UK), of which small inoculums were suspended in 5 mL nutrient broth for bacterial suspension preparation of 0.5MacFarland. Bacterial viability was investigated by estimating the colony-forming unit (CFU) ability of the bacteria incubated at different time intervals without or with appropriate amounts of the compound that were mixed with 2 × 10^7 CFU/mL in sterile BHI broths and were incubated under shaking for 60 min at 37 °C. Samples were serially diluted into sterile BHI broths, streaked onto media agar plates, and incubated for 24 h at 37 °C. The antibacterial potency of tested compounds was expressed as the residual number of CFU with reference to the initial inoculums. […] Ampicillin (1 mg/mL) was used as a positive standard reference.
# [4] = system: Enterococcus faecalis (ATCC 29122); test: Antibacterial activity, CFU viability; format: cell-based; conditions: ATCC29122, mean of two determinations, read-out: Mean IC50 ± SD
# Description: as §3
# [5] = system: Escherichia coli (ATCC 25922); test: Antibacterial activity, CFU viability; format: cell-based; conditions: ATCC25922, mean of two determinations, read-out: Mean IC50 ± SD
# Description: as §3
# [6] = biological target: T1, COX-2 (Homo sapiens, UniProt P35354); test: Cyclooxygenase (COX-2) inhibition assay (Cayman kit 701080); format: biochemical; conditions: for inhibition at 100 µg/mL: read-out: Mean Inhibition % at 100 µg/ml ± SD; for inhibition at 200 µg/mL: read-out: Mean Inhibition % at 200 µg/ml ± SD
# T1 construct: purchased Cayman Chemical Company 701080
# T1 sequence (P35354 18-604): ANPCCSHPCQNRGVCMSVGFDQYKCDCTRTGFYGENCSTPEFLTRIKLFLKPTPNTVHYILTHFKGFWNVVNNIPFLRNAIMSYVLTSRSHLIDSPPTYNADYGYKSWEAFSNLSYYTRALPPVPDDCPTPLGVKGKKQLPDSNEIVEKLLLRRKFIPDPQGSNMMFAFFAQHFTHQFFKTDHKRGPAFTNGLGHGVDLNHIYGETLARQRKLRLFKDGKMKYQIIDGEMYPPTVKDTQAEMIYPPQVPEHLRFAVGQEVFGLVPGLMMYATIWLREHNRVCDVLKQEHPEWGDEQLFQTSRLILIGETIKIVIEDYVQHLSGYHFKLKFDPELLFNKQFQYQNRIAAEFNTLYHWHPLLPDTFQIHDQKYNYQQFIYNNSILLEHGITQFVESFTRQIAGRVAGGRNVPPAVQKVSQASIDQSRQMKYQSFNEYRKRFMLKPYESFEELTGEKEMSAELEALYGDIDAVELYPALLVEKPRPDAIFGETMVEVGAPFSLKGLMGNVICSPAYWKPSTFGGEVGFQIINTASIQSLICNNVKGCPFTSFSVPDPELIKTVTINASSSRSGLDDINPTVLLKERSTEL
# Description: The compounds were resuspended in 100% DMSO at a final concentration of 10 mg/mL. […] The inhibitory activity was expressed as the inhibition percentage, which was determined by comparison with a control experiment. IC50 values were deduced from the curves.
# [7] = biological target: purified recombinant human LDHA protein (Homo sapiens, UniProt P00338); test: Lactate dehydrogenase-A (LDHA) inhibition assay, NADH consumption; format: biochemical; conditions: for inhibition at 100 µg/mL: read-out: Mean Inhibition % at 100 µg/ml ± SD; for inhibition at 200 µg/mL: read-out: Mean Inhibition % at 200 µg/ml ± SD
# Description: LDHA inhibition activity was investigated by measuring the amounts of consumed NADH as described by Kim and his group. Briefly, different concentrations of each compound (50, 100, 200, and 300 µg) were incubated in buffer containing 20 mM of HEPES-K+ (pH 7.2), 20 μM of NADH, 2 mM of pyruvate, and 10 ng of purified recombinant human LDHA protein for 10 min. The fluorescence of NADH, which has an excitation wavelength of 340 nm and emission wavelength of 460 nm, was detected using a Spectrofluorometer.
# [8] = In vitro cytotoxicity assay (LDH release); format: cell-based, human; conditions: human
# Description: as §1, §2
# [9] = HCT-116 colon cancer cells, read-out: Mean % Cell Viability ± SD CRC-HCT-116 cells
# [10] = LoVo colon cancer cells, read-out: Mean % Cell Viability ± SD CRC-LoVo cells
compound,measurement,setting,value
Triton X-100 [reference compound],"Mean % Cell Viability, positive control",[1],0.00%
same,"Mean % Cell Viability, positive control",[2],0.00%
"COc1cc2nc(C)n(N=Cc3cc(OC)c(O)c([N+](=O)[O-])c3)c(=O)c2cc1OC [Compound 6a, 3-[(4-Hydroxy-3-methoxy-5-nitro-benzylidene)-amino]-6,7-dimethoxy-2-methyl-3H-quinazolin-4-one]",IC50,[3],10.9 ± 0.566 µg/mL
same,IC50,[4],13.8 ± 0.495 µg/mL
same,IC50,[5],7.9 ± 0.849 µg/mL
same,IC50,[6],293 µM
same,inhibition at 100 µg/mL,[6],42.9 ± 2.97%
same,inhibition at 200 µg/mL,[6],83%
same,IC50,[7]; LDHA,248 µM
same,inhibition at 100 µg/mL,[7]; LDHA,62.5%
same,inhibition at 200 µg/mL,[7]; LDHA,89.7%
same,"viability at 24 h, 200 µg/mL",[8]; [9],91.2 ± 3.11%
same,"viability at 24 h, 200 µg/mL",[8]; [10],92.2 ± 2.62%
"COc1cc2nc(C)n(N=Cc3ccc(OCc4ccccc4)c(OC)c3)c(=O)c2cc1OC [Compound 6d, 3-[(4-Benzyloxy-3-methoxy-benzylidene)-amino]-6,7-dimethoxy-2-methyl-3H-quinazolin-4-one]",IC50,[3],9 ± 0.99 µg/mL
same,IC50,[4],15.2 ± 0.919 µg/mL
same,IC50,[5],18.4 ± 1.27 µg/mL
same,IC50,[6],215 µM
same,inhibition at 100 µg/mL,[6],50.2%
same,inhibition at 200 µg/mL,[6],97.5%
same,fold by which (6e) is more potent than the labelled compound (LDHA inhibition efficiency),"[7]; 200 µg/mL, comparator 6e",1.7 fold
same,inhibition at 100 µg/mL,[7]; LDHA,31.2 ± 1.63%
same,inhibition at 200 µg/mL,[7]; LDHA,44.4 ± 3.39%
same,"viability at 24 h, 200 µg/mL",[8]; [9],18.5%
same,IC50 at 24 h,"[8]; HCT-116 human colon cancer cells, HCT-116 cells",100 µg/mL
same,"viability at 24 h, 200 µg/mL",[8]; [10],26.8%
same,IC50 at 24 h,"[8]; LoVo human colon cancer cells, LoVo cells",128 µg/mL
